Assay results reported in publication PMC10619691, “Effect of cyclic substituents on the anti-cancer activity and DNA interaction of ruthenium(II) bis-phenanthroline dipyridoquinoline” (Frontiers in Molecular Biosciences, 2023).

Assays:
[1] = tested on: RF I φX174 supercoiled circular DNA; experiment: supercoiled DNA unwinding by atomic force microscopy; assay type: binding; settings: AFM; P/D = 14 for POW-12A and VNK-572, P/D = 5 for VNK-754
Method: FIGURE 7 AFM height images RF I φX174 on a magnesium-soaked mica surface over an area of 2 µm. Samples with the ruthenium complex had solution mixing ratios of P/D = 14 for POW-12A and VNK-572; and of P/D = 5 VNK-754.
Samples for atomic force microscopy (AFM) were prepared on mica crystals cut into squares of approximately 1 cm^2. These squares were stuck with double-sided tape to a 15-mm diameter metal disc. Before sample preparation, Cellotape was used to remove the top layer of the mica crystal, giving a freshly cleaved surface layer on which the sample is to be deposited. Mica was soaked in a 0.1 M solution of MgCl2 for 5 min and blown dry, and Mg^2+ was used to help DNA (negatively charged) adhere to the negatively charged surface of the mica. For solutions containing DNA and POW-12A or VNK-572, a P/D value of 14 was used. For the solution containing DNA and VNK-754, a P/D value of 5 was used. Then, 2 μL of the solution was pipetted onto the mica surface and left for 10 min until the solvent had evaporated, leaving the DNA adhered to the surface. To remove excess salt, each sample was washed three times with 10 µL nanopure water, drying with nitrogen after each wash. AFM was conducted using a Bruker Multi-mode 2 atomic force microscope operated with a NanoScope V controller. ScanAsyst-AIR AFM tips were purchased from Bruker. Scans were run in tapping mode using ScanAsyst, measuring height, peak force error, and phase. The spring constant was adjusted to the spring constant of the tip, which is 0.4 N m^−1 for ScanAsyst-AIR tips; feedback parameters were set automatically by ScanAsyst Auto. Scans were run over 2 μm^2 areas with 512 lines. Images were prepared using NanoScope analysis software. Raw data were processed using first-order flattening and third-order plane fitting. If the background required smoothening due to large molecules on the surface, first-order flattening with a threshold of Z < 0.05 nm was used to improve the appearance of the background. […]

HeLa cells = experiment: cellular localization by confocal fluorescence microscopy; assay type: cell-based, human; settings: 50 μM, 2 h incubation, co-localization with DAPI
Method: This was further confirmed by the co-localization of these complexes with a nuclear counterstain (DAPI) (Figure 2).
Fluorescence microscopy was used to study cellular localization. HeLa cells were seeded on autoclaved coverslips in the 6-well plate and incubated at 37°C for 48 h, after which the culture media were replaced with media containing VNK-572 (50 μM) and VNK-754 (50 μM), respectively, and further incubation was performed for 2 h. Following this, the cells were fixed with Carnoy’s solution and washed twice with PBS thereafter. Finally, the HeLa cells were counterstained with DAPI, and the seeded coverslips were inverted and placed on slides for examination. A Leica confocal microscope was used for the observation of the samples using a magnification of ×63.

DU145 prostate cancer = experiment: sulphorhodamine B (SRB) cytotoxicity assay; assay type: cell-based, human; settings: 72 h incubation, mean ± SEM
Method: (§1) The cytotoxicity profile of the ruthenium complexes […]-572, and POW-12A was assessed in various cancer cell lines, namely, human cervical cancer HeLa, prostate cancer cell line DU145, breast cancer cell line MDAMB231MB231, ovarian cancer cell line A2780, and cisplatin-resistant ovarian cancer cell line A2780-CP70, using the preferred screen of the National Cancer Institute, the sulphorhodamine (SRB) dye assay, and the trypan blue cell viability assay ([Skehan et al., 1990]; [Houghton et al., 2007]; [Strober, 2001]). To determine their selective toxicity profile, these complexes were also tested in a normal prostate cell line (PTN1A). From the similarity in chemical structures of the compounds, we deduced that a structure-activity relationship study will help elucidate key properties involved in the cytotoxic activity of this class of metal complexes. The sulphorhodamine B (SRB) assay was used to evaluate the cytotoxicity of each cancer line after treating them with the metal complexes in line with the previously established protocol ([Skehan et al., 1990]). A cell density of 3 × 10^4 cells/mL was treated with various concentrations (3, 10, 30, 50, and 100 μM) of each ruthenium complex by 1:200 dilutions of stock solutions (in DMSO) in culture media, using DMSO as a control. Then, 100 μL of the cell-drug suspension was added to the respective wells of a 96-well plate and incubated at 37°C for 72 h in a CO2-containing incubator. Following this, the cells were fixed using 25 ul of Carnoy's solution and left in the fridge (4°C) for 1 h. The plates were then rinsed with running water and tapped on paper to remove dead cells. The cells were then stained with 100 μL of sulphorhodamine B dye and left for 30 min, after which the dye was washed off using 1% acetic acid, and the plate was left to dry in the oven (60°C). The stained cells were then treated with 100 μL of Tris base (10 mM, pH 10) to solubilize the dye stain. Finally, the plates were analyzed using an Omega plate reader. Each assay was conducted in triplicate. % Cell response=Average of treated cells / Average of control cells x 100.

PNT1A normal prostate = experiment: sulphorhodamine B (SRB) cytotoxicity assay; assay type: cell-based, human; settings: for IC50: SRB assay, 72 h incubation, mean ± SEM
Method: as §1

HeLa cervical cancer = experiment: sulphorhodamine B (SRB) cytotoxicity assay; assay type: cell-based, human; settings: 72 h incubation, mean ± SEM
Method: as §1

[2] = tested on: A280-CP70 cisplatin-resistant ovarian cancer; experiment: sulphorhodamine B (SRB) cytotoxicity assay; assay type: cell-based, human; settings: SRB assay, 72 h incubation; mean ± SEM
Method: as §1

MDA-MB-231 (TNBC) = experiment: sulphorhodamine B (SRB) cytotoxicity assay; assay type: cell-based, human; settings: 72 h incubation, mean ± SEM
Method: as §1

A2780 ovarian cancer = experiment: sulphorhodamine B (SRB) cytotoxicity assay; assay type: cell-based, human; settings: for IC50: SRB assay, 72 h incubation, mean ± SEM
Method: as §1

`F[P-](F)(F)(F)(F)F.F[P-](F)(F)(F)(F)F.[Ru+2].c1cnc2c(c1)c1ncc3c(c1c1cccnc12)CCC3.c1cnc2c(c1)ccc1cccnc12.c1cnc2c(c1)ccc1cccnc12` [POW-12A] was tested, and the “unwinding of supercoiled circular DNA” value [1] was “unwound”, the cellular localization (HeLa cells) was “penetrate the nucleus” and the IC50 (DU145 prostate cancer) was 35 ± 6.93 µM. The IC50 (PNT1A normal prostate) was over 100 µM, the IC50 (HeLa cervical cancer) was 63 ± 6.35 µM and the IC50 [2] was 35 ± 3.47 µM. It also gave an IC50 (MDA-MB-231 (TNBC)) of over 100 µM and an IC50 (A2780 ovarian cancer) of 12 ± 1.73 µM.

For `F[P-](F)(F)(F)(F)F.F[P-](F)(F)(F)(F)F.[Ru+2].c1cnc2c(c1)c1ncc3c(c1c1cccnc12)CCCC3.c1cnc2c(c1)ccc1cccnc12.c1cnc2c(c1)ccc1cccnc12` [VNK-572], the “unwinding of supercoiled circular DNA” value [1] was “unwound”, the cellular localization (HeLa cells) was “penetrate the nucleus” and the IC50 (DU145 prostate cancer) was 19 ± 2.31 µM. For the same compound, the IC50 (PNT1A normal prostate) was over 100 µM, the “fold difference in sensitivity between normal prostate cells (PNT1A) and prostate cancer cell line DU145” value (PNT1A normal prostate; from SRB IC50 values) was “more than five-fold” and the IC50 (HeLa cervical cancer) was 52 ± 6.35 µM. It also gave an IC50 [2] of 15 ± 2.89 µM, an IC50 (MDA-MB-231 (TNBC)) of over 100 µM and an IC50 (A2780 ovarian cancer) of 10 ± 4.04 µM. For the same compound, the “fold difference between the anti-cancer activities of VNK-754 and VNK-572” value (A2780 ovarian cancer; more susceptible cancer cell lines (A2780 and DU145)) was “seven-fold”.
